Assay results taken from US8501713B2, “Drug combinations for the treatment of duchenne muscular dystrophy” (Summit Corporation PLC, priority 2007, dated 2013).

Tested on: Utrophin A promoter linked to a luciferase reporter gene
Test: Luciferase reporter assay (murine H2K cells)
Format: cell-based
Conditions: luciferase level relative to control, H2K/mdx/Utro A reporter cells, compound 10 μM final concentration; for activity at 10 µM: Mus musculus, H2K mdx, read-out: Activity
Outline: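 Immortalized mdx mouse H2K myoblasts stably carrying a ~5 kb utrophin A promoter–luciferase construct, kept at 33° C, 10% CO2. After 24 hrs plating, compound added at 10 μM final for 48 hrs; luciferase light output read after in-situ lysis.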

| Structure (SMILES) | activity at 10 µM [%] | Activity |
| --- | --- | --- |
| CC(C)C(=O)Nc1ccc2oc(-c3ccc(Cl)cn3)nc2c1 [Example 270, N-(2-(5-chloropyridin-2-yl)benzo[d]oxazol-5-yl)isobutyramide] | > 401 |  |
| CC(C)C(=O)Nc1ccc2oc(-c3cc(Cl)cc(Cl)c3)nc2c1 [Example 271, N-(2-(3,5-dichlorophenyl)benzo[d]oxazol-5-yl)isobutyramide] | 201 to 300 |  |
| C[C@H](N)C(=O)Nc1ccc2oc(-c3ccc(Cl)cc3)nc2c1 [Example 272, (S)-2-amino-N-(2-(4-chlorophenyl)benzo[d]oxazol-5-yl)propanamide] | 301 to 400 |  |
| CC(C)C(=O)Nc1ccc2oc(-c3cccc(Cl)c3Cl)nc2c1 [Example 273, N-(2-(2,3-dichlorophenyl)benzo[d]oxazol-5-yl)isobutyramide] | > 401 |  |
| CC(C)NC(=S)c1ccc2oc(-c3ccc(Cl)cc3)nc2c1 [Example 274, 2-(4-chlorophenyl)-N-isopropylbenzo[d]oxazole-5-carbothioamide] | < 200 |  |
| CC(C)C(=S)Nc1ccc2oc(-c3ccc(Cl)cc3)nc2c1 [Example 275, N-(2-(4-chlorophenyl)benzo[d]oxazol-5-yl)-2-methylpropanethioamide] | 201 to 300 |  |
| Nc1ccc2sc(-c3ccc(Cl)cc3)nc2c1 [Example 276, 2-(4-chlorophenyl)benzo[d]thiazol-5-amine] | > 401 |  |
| CC(C)C(=O)Nc1ccc2sc(-c3ccc(Cl)cc3)nc2c1 [Example 277, N-(2-(4-chlorophenyl)benzo[d]thiazol-5-yl)isobutyramide] | 301 to 400 |  |
| CC(C)N(C)C(=O)c1ccc2oc(-c3ccc(Cl)cc3)nc2c1 [Example 278, 2-(4-chlorophenyl)-N-isopropyl-N-methylbenzo[d]oxazole-5-carboxamide] | 301 to 400 |  |
| CNC(=O)c1ccc2oc(-c3ccc(Cl)cc3)nc2c1 [Example 279, 2-(4-chlorophenyl)-N-methylbenzo[d]oxazole-5-carboxamide] | 301 to 400 |  |
| Nc1ccc2oc(CCc3ccccc3)nc2c1 [Example 280, 2-phenethylbenzo[d]oxazol-5-amine] | > 401 |  |
| CC(C)S(=O)(=O)c1ccc2oc(-c3ccc(Cl)cc3)nc2c1 [Example 281, 2-(4-chlorophenyl)-5-(isopropylsulfonyl)benzo[d]oxazole] | > 401 |  |
| Nc1ccc2sc(-c3ccccc3Cl)nc2c1 [Example 282, 2-(2-chlorophenyl)benzo[d]thiazol-5-amine] | > 401 |  |
| Nc1ccc2sc(-c3cccc(Cl)c3)nc2c1 [Example 283, 2-(3-chlorophenyl)benzo[d]thiazol-5-amine] | > 401 |  |
| Nc1ccc2sc(-c3ccc(Cl)c(Cl)c3)nc2c1 [Example 284, 2-(3,4-dichlorophenyl)benzo[d]thiazol-5-amine] | > 401 |  |
| O=C(CCN1CCOCC1)Nc1ccc2oc(-c3ccccc3)nc2c1 [Example 285, 3-morpholino-N-(2-phenylbenzo[d]oxazol-5-yl)propanamide] | < 200 |  |
| O=[N+]([O-])c1ccc2oc(-c3ccc4c(c3)OCO4)nc2c1 [Example 286, 2-(benzo[d][1,3]dioxol-5-yl)-5-nitrobenzo[d]oxazole] | 301 to 400 |  |
| COC(=O)c1ccc(-c2ccc3oc(-c4ccc(Cl)cc4)nc3c2)cc1 [Example 287, methyl 4-(2-(4-chlorophenyl)benzo[d]oxazol-5-yl)benzoate] | < 200 |  |
| Clc1ccc(-c2nc3cc(Br)ccc3o2)cc1 [Example 288, 5-bromo-2-(4-chlorophenyl)benzo[d]oxazole] | > 401 |  |
| Nc1ccc(-c2nc3cc(Cl)ccc3o2)cc1 [Example 289, 4-(5-chlorobenzo[d]oxazol-2-yl)aniline] | > 401 |  |
| Nc1ccc(-c2nc3ccc(Cl)cc3o2)cc1 [Example 290, 4-(6-chlorobenzo[d]oxazol-2-yl)aniline] | 301 to 400 |  |
| Clc1ccc(-c2nc3cc(-c4ccc(N5CCOCC5)cc4)ccc3o2)cc1 [Example 291, 2-(4-chlorophenyl)-5-(4-morpholinophenyl)benzo[d]oxazole] | 201 to 300 |  |
| CCSc1cccc(-c2ccc3oc(-c4ccc(Cl)cc4)nc3c2)c1 [Example 292, 2-(4-chlorophenyl)-5-(3-(ethylthio)phenyl)benzo[d]oxazole] | 201 to 300 |  |
| CCS(=O)(=O)c1ccc2oc(-c3cccc(Cl)c3)nc2c1 [Example 293, 2-(3-chlorophenyl)-5-(ethylsulfonyl)benzo[d]oxazole] | > 401 |  |
| CC(=O)Nc1ccccc1-c1ccc2oc(-c3ccc(Cl)cc3)nc2c1 [Example 294, N-(2-(2-(4-chlorophenyl)benzo[d]oxazol-5-yl)phenyl)acetamide] | < 200 |  |
| CC(C)C(=O)Nc1ccc2sc(-c3ccccc3Cl)nc2c1 [Example 295, N-(2-(2-chlorophenyl)benzo[d]thiazol-5-yl)isobutyramide] | > 401 |  |

| Structure (SMILES) | activity at 10 µM [%] | Activity |
| --- | --- | --- |
| CC(C)C(=O)Nc1ccc2sc(-c3cccc(Cl)c3)nc2c1 [Example 296, N-(2-(3-chlorophenyl)benzo[d]thiazol-5-yl)isobutyramide] | > 401 |  |
| CC(C)C(=O)Nc1ccc2sc(-c3ccc(Cl)c(Cl)c3)nc2c1 [Example 297, N-(2-(3,4-dichlorophenyl)benzo[d]thiazol-5-yl)isobutyramide] | > 401 |  |
| CCS(=O)(=O)c1ccc2oc(-c3ccccc3Cl)nc2c1 [Example 298, 2-(2-Chlorophenyl)-5-(ethylsulfonyl)benzo[d]oxazole] | 201 to 300 |  |
| Nc1ccc2oc(-c3ccc4c(c3)OCO4)nc2c1 [Example 299, 2-(benzo[d][1,3]dioxol-5-yl)benzo[d]oxazol-5-amine] | 201 to 300 |  |
| CC(C)C(=O)Nc1ccc2oc(-c3ccc4c(c3)OCO4)nc2c1 [Example 300, N-(2-(benzo[d][1,3]dioxol-5-yl)benzo[d]oxazol-5-yl)isobutyramide] | 301 to 400 |  |
| CCS(=O)(=O)c1ccc2oc(-c3ccc(Cl)c(Cl)c3)nc2c1 [Example 301, 2-(3,4-diChlorophenyl)-5-(ethylsulfonyl)benzo[d]oxazole] | 201 to 300 |  |
| CC(C)C(=O)Nc1ccc2oc(CCc3ccccc3)nc2c1 [Example 302, N-(2-phenethylbenzo[d]oxazol-5-yl)isobutyramide] | < 200 |  |
| CC(C)C(=O)Nc1ccc2sc(-c3cccc(Cl)c3Cl)nc2c1 [Example 303, N-(2-(2,3-dichlorophenyl)benzo[d]thiazol-5-yl)isobutyramide] | 301 to 400 |  |
| CCS(=O)(=O)c1ccc2oc(-c3cccc(Cl)c3Cl)nc2c1 [Example 304, 2-(2,3-diChlorophenyl)-5-(ethylsulfonyl)benzo[d]oxazole] | < 200 |  |
| COc1ccc(-c2ccc3oc(-c4ccc(Cl)cc4)nc3c2)cn1 [Example 305, 2-(4-chlorophenyl)-5-(6-methoxypyridin-3-yl)benzo[d]oxazole] | 201 to 300 |  |
| COc1ccc(-c2ccc3oc(-c4ccc(Cl)cc4)nc3c2)cn1 [Example 306, 2-(4-chlorophenyl)-5-(6-methoxypyridin-3-yl)benzo[d]oxazole] |  | + (Up to 200% relative to control) |
| Nc1ccc2sc(-c3cccc(Cl)c3Cl)nc2c1 [Example 307, 2-(2,3-dichlorophenyl)benzo[d]thiazol-5-amine] | 301 to 400 |  |
| CC(c1ccccc1)c1nc2cc(N)ccc2o1 (stereo not shown) [Example 308, 2-(1-phenylethyl)benzo[d]oxazol-5-amine] | < 200 |  |
| CC(C)C(=O)Nc1ccc2oc(C(C)c3ccccc3)nc2c1 (stereo not shown) [Example 309, N-(2-(1-phenylethyl)benzo[d]oxazol-5-yl)isobutyramide] | < 200 |  |
| Clc1ccc(-c2nc3cc4c(cc3o2)OCO4)cc1 [Example 310, 2-(4-chlorophenyl)-5,6-methylenedioxybenzoxazole] | 301 to 400 |  |
| CC(C)C(=O)Nc1ccc2oc(-c3cc(Cl)ccc3Cl)nc2c1 [Example 311, N-(2-(2,5-dichlorophenyl)benzo[d]oxazol-5-yl)isobutyramide] | < 200 |  |
| O=S(=O)(O)c1ccc2oc(-c3ccc(Cl)cc3)nc2c1 [Example 312, 2-(4-chlorophenyl)benzo[d]oxazole-5-sulfonic acid] | < 200 |  |
| O=C(O)c1cccc(-c2ccc3oc(-c4ccc(Cl)cc4)nc3c2)c1 [Example 313, 3-(2-(4-chlorophenyl)benzo[d]oxazol-5-yl)benzoic acidd] |  | + (Up to 200% relative to control) |
| Clc1ccc(-c2nc3cc(-c4ccc(Cl)nc4)ccc3o2)cc1 [Example 314, 2-(4-chlorophenyl)-5-(6-chloropyridin-3-yl)benzo[d]oxazole] | < 200 |  |
| Fc1ccc(-c2ccc3oc(-c4ccc(Cl)cc4)nc3c2)cn1 [Example 315, 2-(4-chlorophenyl)-5-(6-fluoropyridin-3-yl)benzo[d]oxazole] | < 200 |  |
| Clc1ccc(-c2nc3cc(-c4ccc(N5CCOCC5)nc4)ccc3o2)cc1 [Example 316, 2-(4-chlorophenyl)-5-(6-morpholinopyridin-3-yl)benzo[d]oxazole] | < 200 |  |
| CC(=O)Nc1ccc(-c2nc3cc(Cl)ccc3o2)cc1 [Example 317, N-(4-(5-chlorobenzo[d]oxazol-2-yl)phenyl)acetamide] | 301 to 400 |  |
| CC(C)C(=O)Nc1ccc(-c2nc3cc(Cl)ccc3o2)cc1 [Example 318, N-(4-(5-chlorobenzo[d]oxazol-2-yl)phenyl)isobutyramide] | 201 to 300 |  |
| O=C(Nc1ccc(-c2nc3cc(Cl)ccc3o2)cc1)c1cccs1 [Example 319, N-(4-(5-chlorobenzo[d]oxazol-2-yl)phenyl)thiophene-2-carboxamide] | < 200 |  |
| CC(C)C(=O)N(C)c1ccc2oc(-c3ccc(Cl)cc3)nc2c1 [Example 320, N-(2-(4-chlorophenyl)benzo[d]oxazol-5-yl)-N-methylisobutyramide] | 201 to 300 |  |
| CC(C)(C)c1ccc2oc(-c3ccc(Cl)cc3)nc2c1 [Example 321, 5-tert-butyl-2-(4-chlorophenyl)benzo[d]oxazole] | > 401 |  |
